# According to PMC2821452 (Synapse (New York, N.Y.), 2010):
# Tested on: opioid receptors
# Test: Affinity for opioid receptors
# Type: binding
# Details: unpublished data
compound,measurement,value
"CC(=O)O[C@@H]1C[C@H]2C(C)(C)C(=O)C=C[C@]2(C)[C@H]2CC[C@@]3(C)[C@H](c4ccoc4)OC(=O)[C@H]4O[C@]43[C@@]21C [Gedunin, (1S,3aS,4aR,4bS,5R,6aR,10aR,10bR,12aS)-5-(acetyloxy)-1-(3-furanyl)-1,5,6,6a,7,10a,10b,11,12,12a-decahydro-4b,7,7,10a,12a-pentamethyl-oxireno[c]phenanthro[1,2-d]pyran-3,8(3aH,4bH)-dione]",affinity for opioid receptors,no affinity
